Test results taken from US20060127894A1, “Protein associated with cell growth, differentiation, and death” (Incyte Corporation, priority 2001, published 2006).

Legend:
[1] = tested on: human umbilical vein endothelial cells (HUVECs); conditions: cited from earlier work
[2] = tested on: SEQ ID NO:45 expression in C3A cells; assay: Microarray expression analysis of steroid-treated versus untreated C3A cells; format: cell-based, human
Protocol: Total RNA is isolated from tissue samples using the guanidinium thiocyanate method and poly(A)^+ RNA is purified using the oligo-(dT) cellulose method. Each poly(A)^+ RNA sample is reverse transcribed using MMLV reverse-transcriptase, 0.05 pg/μl oligo-(dT) primer (21 mer), 1×first strand buffer, 0.03 units/μL RNase inhibitor, 500 μM dATP, 500 μM dGTP, 500 μM dTTP, 40 μM dCTP, 40 μM dCTP-Cy3 (BDS) or dCTP-Cy5 (Amersham Biosciences). The reverse transcription reaction is performed in a […] containing 200 ng poly(A)^+ RNA with GEMBRIGHT kits (Incyte). Specific control poly(A)+ RNAs are synthesized by in vitro transcription from non-coding yeast genomic DNA. After incubation at 37° C. for 2 hr, each reaction sample (one with Cy3 and another with Cy5 labeling) is treated with […] of 0.5M sodium hydroxide and incubated for 20 minutes at 85° C. to the stop the reaction and degrade the RNA. Samples are purified using two successive CHROMA SPIN 30 gel filtration spin columns (CLONTECH Laboratories, Inc. (CLONTECH), Palo Alto Calif.) and after combining, both reaction samples are ethanol precipitated using 1 ml of glycogen (1 mg/ml), 60 ml sodium acetate, and 300 ml of 100% ethanol. The sample is then dried to completion using a SpeedVAC (Savant Instruments Inc., Holbrook N.Y.) and resuspended in 14 μl 5×SSC/0.2% SDS.
Sequences of the present invention are used to generate array elements. Each array element is amplified from bacterial cells containing vectors with cloned cDNA inserts. PCR amplification uses primers complementary to the vector sequences flanking the cDNA insert. Array elements are amplified in thirty cycles of PCR from an initial quantity of 1-2 ng to a final quantity greater than 5 μg. Amplified array elements are then purified using […]-400 (Amersham Biosciences).
Hybridization reactions contain 9 μl of sample mixture consisting of 0.2 μg each of Cy3 and Cy5 labeled cDNA synthesis products in 5×SSC, 0.2% SDS hybridization buffer. The sample mixture is heated to 65° C. for 5 minutes and is aliquoted onto the microarray surface and covered with an 1.8 cm^2 coverslip. The arrays are transferred to a waterproof chamber having a cavity just slightly larger than a microscope slide. The chamber is kept at 100% humidity internally by the addition of 140 μl of 5×SSC in a comer of the chamber. The chamber containing the arrays is incubated for about 6.5 hours at 60° C. The arrays are washed for 10 min at 45° C. in a first wash buffer (1×SSC, 0.1% SDS), three times for 10 minutes each at 45° C. in a second wash buffer (0.1×SSC), and dried.
Reporter-labeled hybridization complexes are detected with a microscope equipped with an Innova 70 mixed gas 10 W laser (Coherent, Inc., Santa Clara Calif.) capable of generating spectral lines at 488 nm for excitation of Cy3 and at 632 nm for excitation of CyS. The excitation laser light is focused on the array using a 20× microscope objective (Nikon, Inc., Melville N.Y.). The slide containing the array is placed on a computer-controlled X-Y stage on the microscope and raster-scanned past the objective. The 1.8 cm×1.8 cm array used in the present example is scanned with a resolution of 20 micrometers.
A grid is superimposed over the fluorescence signal image such that the signal from each spot is centered in each element of the grid. The fluorescence signal within each element is then integrated to obtain a numerical value corresponding to the average intensity of the signal. […]

[3] = cited from earlier work
[4] = tested on: SEQ ID NO:33 expression in BT-20 cells; assay: Microarray expression analysis of BT-20 cells treated with EGF; format: cell-based, human; conditions: BT-20 breast carcinoma cells
Protocol: Total RNA is isolated from tissue samples using the guanidinium thiocyanate method and poly(A)^+ RNA is purified using the oligo-(dT) cellulose method. Each poly(A)^+ RNA sample is reverse transcribed using MMLV reverse-transcriptase, 0.05 pg/μl oligo-(dT) primer (21 mer), 1×first strand buffer, 0.03 units/μL RNase inhibitor, 500 μM dATP, 500 μM dGTP, 500 μM dTTP, 40 μM dCTP, 40 μM dCTP-Cy3 (BDS) or dCTP-Cy5 (Amersham Biosciences). The reverse transcription reaction is performed in a […] containing 200 ng poly(A)^+ RNA with GEMBRIGHT kits (Incyte). Specific control poly(A)+ RNAs are synthesized by in vitro transcription from non-coding yeast genomic DNA. […]
Sequences of the present invention are used to generate array elements. […] Array elements are amplified in thirty cycles of PCR from an initial quantity of 1-2 ng to a final quantity greater than 5 μg. […]
Reporter-labeled hybridization complexes are detected with a microscope equipped with an Innova 70 mixed gas 10 W laser (Coherent, Inc., Santa Clara Calif.) capable of generating spectral lines at 488 nm for excitation of Cy3 and at 632 nm for excitation of CyS. […]
A grid is superimposed over the fluorescence signal image such that the signal from each spot is centered in each element of the grid. […]

[5] = dose 10 μM, 1 hour of treatment
[6] = dose 10 μM, 3 hours of treatment

In the case of TNF-α, the “increase of cellular secretions of MCP-1 compared with untreated cells” value [1] is listed as 119 fold.
In the case of `C[C@H]1C[C@H]2[C@@H]3CCC4=CC(=O)C=C[C@]4(C)[C@@]3(Cl)[C@@H](O)C[C@]2(C)[C@@]1(O)C(=O)CO` [beclomethasone], the “expression of SEQ ID NO:45 increased in drug-treated, as compared to untreated, C3A cells” value (shortened to “expression of SEQ ID NO:45 increased”) ([2]; dose 1 μM, 3 hours of treatment) is reported as “at least two-fold”, the “expression of SEQ ID NO:45 increased” value [2, 5] is reported as “at least two-fold” and the “expression of SEQ ID NO:45 increased” value [2, 6] is reported as “at least two-fold”. For the same compound, the “anti-inflammatory and vasoconstrictive effects relative to hydrocortisone” value ([3]; intranasal, greater than those produced by hydrocortisone) was 5000 times.
With “epidermal growth factor: a potent mitogen (NSDSECPLSHDGYCLHDGVCMYIEALDKYACNCVVGYIGERCQYRDLKWWELR; Epidermal growth factor; UniProt P01133 971-1023, looked up)” the “expression of SEQ ID NO:33 down-regulated on treatment of BT-20 cells” value [4] was “at least two-fold”.
For “6α-methyl-17-hydroxyprogesterone [medroxyprogesterone]”, the “expression of SEQ ID NO:45 increased” value [2, 5] is given as “at least two-fold”, the “expression of SEQ ID NO:45 increased” value [2, 6] is given as “at least two-fold” and the “pharmacological activity relative to progesterone” value ([3]; greater than progesterone) is given as “about 15 times”.
